Key:
Calu-1 cells = test: Anti-proliferation (viability) of NSCLC Calu-1 cells, 3 days (Table 7, FIG. 2B); assay type: cell-based; settings: Homo sapiens, 72 h; Calu-1 cells, 3 days, 10-point serial dilution; read-out: GI IC50 in Calu-1
Outline: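 Treatment length differs by line: Calu-1 cells receive degrader for 3 days, T47D cells for 6 days, each over a 10-point dilution series. A warhead-modified analogue with unchanged DDB1 binder and linker served as the non-CDK4-binding control.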

MCF7 cells = test: Anti-proliferation (viability) of MCF7 cells (Table 7, FIG. 2B); assay type: cell-based; settings: Homo sapiens, MCF7, MCF7 cells, 3-6 days, 10-point serial dilution; read-out: GI IC50 in MCF-7

SMILES	IC50 (Calu-1 cells) [nM]	IC50 (MCF7 cells) [nM]
[2H]C([2H])([2H])Nc1ccc(C(=O)Nc2ccc(N(C)C)nn2)c(NC2CCN(C(=O)N3CCC(N4CCN(c5ccc(Nc6ncc7c(C)c(C(C)=O)c(=O)n(C8CCCC8)c7n6)nc5)CC4)C3)CC2)n1 (stereo not drawn) [CPD-482, 2-((1-(3-(4-(6-((6-acetyl-8-cyclopentyl-5-methyl-7-oxo-7,8-dihydropyrido[2,3-d]pyrimidin-2-yl)amino)pyridin-3-yl)piperazin-1-yl)pyrrolidine-1-carbonyl)piperidin-4-yl)amino)-N-(6-(dimethylamino)pyridazin-3-yl)-6-((methyl-d3)amino)nicotinamide]	≤ 10	< 50
CC(=O)c1c(C)c2cnc(Nc3ccc(N4CCC5(CC4)CC5C(=O)NC4CC5(C4)CC(Nc4nc(NC(C)C)ccc4C(=O)Nc4cn(C)c(C6CC6)n4)C5)cn3)nc2n(C2CCCC2)c1=O (stereo not drawn) [CPD-457, 6-(6-((6-acetyl-8-cyclopentyl-5-methyl-7-oxo-7,8-dihydropyrido[2,3-d]pyrimidin-2-yl)amino)pyridin-3-yl)-N-(6-((3-((2-cyclopropyl-1-methyl-1H-imidazol-4-yl)carbamoyl)-6-(isopropylamino)pyridin-2-yl)amino)spiro[3.3]heptan-2-yl)-6-azaspiro[2.5]octane-1-carboxamide]	≤ 10	< 50
[2H]C([2H])([2H])Nc1ccc(C(=O)Nc2ccc(N(C)C)nn2)c(N[C@H]2CC[C@H](C(=O)N3CCC(N4CCN(c5ccc(Nc6ncc7c(C)c(C(C)=O)c(=O)n(C8CCCC8)c7n6)nc5)CC4)C3)CC2)n1 (stereo partly drawn) [CPD-476, 2-((trans-4-(3-(4-(6-((6-acetyl-8-cyclopentyl-5-methyl-7-oxo-7,8-dihydropyrido[2,3-d]pyrimidin-2-yl)amino)pyridin-3-yl)piperazin-1-yl)pyrrolidine-1-carbonyl)cyclohexyl)amino)-N-(6-(dimethylamino)pyridazin-3-yl)-6-((methyl-d3)amino)nicotinamide]	≤ 10	< 50
CC(=O)c1c(C)c2cnc(Nc3ccc(N4CCN(C(C)CC(=O)NC56CC(Nc7nc(NC(C)C)ccc7C(=O)Nc7ccc(N(C)C)nn7)(C5)C6)CC4)cn3)nc2n(C2CCCC2)c1=O (stereo not drawn) [CPD-504, 2-((3-(3-(4-(6-((6-acetyl-8-cyclopentyl-5-methyl-7-oxo-7,8-dihydropyrido[2,3-d]pyrimidin-2-yl)amino)pyridin-3-yl)piperazin-1-yl)butanamido)bicyclo[1.1.1]pentan-1-yl)amino)-N-(6-(dimethylamino)pyridazin-3-yl)-6-(isopropylamino)nicotinamide]	≤ 10	< 50
CC(=O)c1c(C)c2cnc(Nc3ccc(N4CCN(C5CCN(C(=O)C6CCC7(CC(Nc8nc(NC(C)C)ccc8C(=O)Nc8ccc(N(C)C)nn8)C7)C6)C5)CC4)cn3)nc2n(C2CCCC2)c1=O (stereo not drawn) [CPD-556, 2-((6-(3-(4-(6-((6-acetyl-8-cyclopentyl-5-methyl-7-oxo-7,8-dihydropyrido[2,3-d]pyrimidin-2-yl)amino)pyridin-3-yl)piperazin-1-yl)pyrrolidine-1-carbonyl)spiro[3.4]octan-2-yl)amino)-N-(6-(dimethylamino)pyridazin-3-yl)-6-(isopropylamino)nicotinamide]	≤ 10	< 50
[2H]C([2H])([2H])Nc1ccc(C(=O)Nc2cn(C)c(C3CC3)n2)c(NC2CC(NC(=O)N3CCN(c4ccc(Nc5ncc6c(C)c(C(C)=O)c(=O)n(C7CCCC7)c6n5)nc4)CC3)C2)n1 (stereo not drawn) [CPD-287, 4-(6-((6-acetyl-8-cyclopentyl-5-methyl-7-oxo-7,8-dihydropyrido[2,3-d]pyrimidin-2-yl)amino)pyridin-3-yl)-N-(3-((3-((2-cyclopropyl-1-methyl-1H-imidazol-4-yl)carbamoyl)-6-((methyl-d3)amino)pyridin-2-yl)amino)cyclobutyl)piperazine-1-carboxamide]	≥ 50	> 100

Reference: patent US20260297081A1, “COMPOUNDS AND METHODS OF TREATING CANCERS” (Cullgen Inc., priority 2023, published 2026)
